Here are results for six molecules from US20250205257A1 (priority 2022, published 2025).

For data set [1], the system named is recombinant ASFV genotype II Georgia virus, GeorgiaDMGFB. The class given is cell-based, African swine fever virus.
A further data set relates to ASFV KAB6/2. Briefly: microbe, parasite or virus in culture. Format: cell-based. The settings on record: African swine fever virus, PBMC, 72 h, read-out: EC50 KAB6/2.
For data set [2] the following is noted: pig, in vivo.
A further data set is described as follows: in vivo. The settings on record: pig.
Another data set in a line: in vitro. The settings on record: pig, CC50 (50% cytotoxic concentration).
In the next data set the test system is ASFV BOT 1/99. Nature of the data set: microbe, parasite or virus in culture. Format: cell-based. As to conditions: African swine fever virus, PBMC, 72 h, read-out: EC50 BOT P1/99.
A further data set relates to ASFV Magadi w/hog 9. Nature of the data set: microbe, parasite or virus in culture. The class given is cell-based. As to conditions: African swine fever virus, PBMC, 72 h, read-out: EC50 Magadi w/hog 9.
Data set [3] has as its system ASFV strain Georgia 2007/1. As to conditions: pig, in vivo, po, 30 mg/kg.
The test system of the next data set is porcine kidney cells. As to conditions: pig.
In the next data set the test system is ASFV Georgia 2007/1. Briefly: microbe, parasite or virus in culture. Format: cell-based. The settings on record: African swine fever virus, PBMC, 72 h, read-out: EC50 Georgia 2007/1.
The subject of data set [4] is ASFV strain Georgia 2007/1. As to conditions: pig, in vivo.

For orientation: half-life means the time needed for the level to fall by half in the phase considered. The low end stands for rapid decline, the high end for slow decline. As a reminder, the AUC is concentration integrated over time. A low value points to less exposure. The CC50 is the concentration at which the toxic effect on the cells reaches its halfway point. Low readings indicate harm at low concentration, high ones better tolerance by the cells.

As for `CC(C)(C)C(=O)OCOP1(=O)CO[C@@H](Cn2ccc(N)nc2=O)CO1` (stereo partly drawn) [Compound 1, Pivaloyloxymethyl ester of cHPMPC], in data set [1], the “efficacy compared to cHPMPC” value is “intermediate”.
Turning to `CC(C)OC(=O)OCOP1(=O)CO[C@@H](Cn2ccc(N)nc2=O)CO1` (stereo partly drawn) [Compound 2, Isopropyloxycarbonyloxymethyl ester of cHPMPC], in data set [1], the “efficacy compared to cHPMPC” value is recorded as “intermediate”.
Consider `CCCCCCCCCCCCCCCCOCCCOP1(=O)CO[C@@H](Cn2ccc(N)nc2=O)CO1` (stereo partly drawn) [Compound 3, Hexadecyloxypropyl ester of cHPMPC], for which, in [1], the “efficacy compared to cHPMPC” value is on record as “greatly increased efficacy” and the selectivity indices entry is on record as “thousands”.
Consider `CCCCCCCCCCCCCCCCCCOCCOP1(=O)CO[C@@H](Cn2ccc(N)nc2=O)CO1` (stereo partly drawn) [Compound 4, Octadecyloxyethyl ester of cHPMPC], for which, in [1], the “efficacy compared to cHPMPC” value was “greatly increased efficacy” and the selectivity indices result is given as “thousands”.
For the molecule `CC(C)OC(=O)[C@H](C)NP1(=O)CO[C@@H](Cn2ccc(N)nc2=O)CO1` (stereo partly drawn) [Compound 5, Isopropyl L-alaninyl cHPMPC], in data set [1], the “efficacy compared to cHPMPC” value is recorded as “intermediate”.
Take `Nc1ccn(C[C@H]2COP(=O)(O)CO2)c(=O)n1` [cHPMPC, cyclic cidofovir]: the EC50 worked out at 590 ± 80 nM with ASFV KAB6/2, 300 ± 200 nM in the data set with ASFV BOT 1/99, 110 ± 50 nM in the data set with ASFV Magadi w/hog 9 and 310 ± 170 nM in the data set on ASFV Georgia 2007/1. In [2], the other adverse events entry is given as “No other adverse events were recorded”. The tolerability entry in [2] is given as “well tolerated”. Further, the “injection site observation 1 hour post intravenous dosing” value in data set [2] (iv, 5 mg/kg) is “redness at injection site was observed in all pigs”. For the same molecule, the “injection site observation 4 hour post intravenous administration” value in [2] (iv, 5 mg/kg) is “no injection site reactions were observed”. Besides, the “concentration above which mNeon Green expression was not observed” value in data set [1] is greater than 0.05 µM. Also, the half-life was 3.31 h in “in vivo” (iv, 5 mg/kg) and 3.51 h in the data set “in vivo” (po, 25 mg/kg). Also, the exposure (AUC) is 71.6 µM·h in “in vivo” (iv, 5 mg/kg, AUC, analyte VV03-0035); 58 to 95.4 µM·h in the data set “in vivo” (iv, 5 mg/kg, exposure (AUC) of VV03-0035, range across pigs); 11.6 µM·h in the data set “in vivo” (po, 25 mg/kg, AUC, analyte VV03-0035); 2.32 to 23.7 µM·h in “in vivo” (po, 25 mg/kg, exposure (AUC) of VV03-0035, range across pigs). For the same molecule, the CC50 in “in vitro” was 47000 nM; in the data set on porcine kidney cells, 59000 nM. For the same molecule, the ASF viraemia entry in data set [3] is “significantly reduced”. The “ASF viral genome copies in organs (lungs, spleens, lymph nodes) compared to placebo” value in data set [3] is recorded as “significantly reduced”. Further, the “median survival / median day of death” value in [3] worked out at 8 days. Besides, the “pigs survived until the end of the study (day 27 post ASFV challenge) with no ASF disease” value in [4] came out at 2 pigs. The “ASFV genome copies in blood on termination days compared to control pigs” value in data set [4] (po, 30 mg/kg) is listed as “reduced”. The “ASFV genome copies in swab samples on termination days compared to control pigs” value in data set [4] (po, 30 mg/kg) is given as “reduced”. In [4] (po, 30 mg/kg), this molecule gave a median survival of 19.5 days. Also, the “pigs euthanized at moderate severity humane endpoint on day 6 showing reduced ASF disease” value in data set [4] (po, 30 mg/kg) is 2 pigs. The “pigs euthanized at moderate severity humane endpoint on day 19 and day 20 with delayed and reduced ASF disease” value in [4] (po, 30 mg/kg) came out at 2 pigs.
